Our source for the MIC, IC50 and MBC values is ChEMBL document CHEMBL5518159, “Thiazole-based analogues as potential antibacterial agents against methicillin-resistant Staphylococcus aureus (MRSA) and their SAR elucidation” (Eur J Med Chem, 2023).

≈ marks a conversion by molar mass, not a printed value.

In general, MIC refers to the lowest concentration found to suppress growth. By IC50 is commonly meant the midpoint of a concentration-inhibition curve. The term MBC denotes the smallest concentration meeting the test's criterion for killing.

Assay [1] has as its system Staphylococcus aureus. The assay is described as follows: Antibacterial activity against […] Staphylococcus aureus ATCC 6538 assessed as reduction in bacterial growth incubated for 18 hrs by CLSI based broth-dilution method. The class given is functional.
The target in assay [2] is DNA gyrase (Escherichia coli, UniProt P0AES4+P0AES6). Kind of assay: Inhibition of Escherichia coli DNA gyrase assessed as reduction in enzyme-mediated supercoiling of relaxed plasmid by fluorescence polarization assay. The class given is protein-complex assay. Background: In fluorescence polarisation assays a small probe gives low polarisation when free and higher when bound to something large.

In assay [3] the target is DNA gyrase (Staphylococcus aureus, UniProt P0A0K8+P20831). Kind of assay: Inhibition of Staphylococcus aureus DNA gyrase. The class given is protein-complex assay.
Chain of DNA gyrase (Staphylococcus aureus, UniProt P0A0K8+P20831) (P0A0K8 whole entry): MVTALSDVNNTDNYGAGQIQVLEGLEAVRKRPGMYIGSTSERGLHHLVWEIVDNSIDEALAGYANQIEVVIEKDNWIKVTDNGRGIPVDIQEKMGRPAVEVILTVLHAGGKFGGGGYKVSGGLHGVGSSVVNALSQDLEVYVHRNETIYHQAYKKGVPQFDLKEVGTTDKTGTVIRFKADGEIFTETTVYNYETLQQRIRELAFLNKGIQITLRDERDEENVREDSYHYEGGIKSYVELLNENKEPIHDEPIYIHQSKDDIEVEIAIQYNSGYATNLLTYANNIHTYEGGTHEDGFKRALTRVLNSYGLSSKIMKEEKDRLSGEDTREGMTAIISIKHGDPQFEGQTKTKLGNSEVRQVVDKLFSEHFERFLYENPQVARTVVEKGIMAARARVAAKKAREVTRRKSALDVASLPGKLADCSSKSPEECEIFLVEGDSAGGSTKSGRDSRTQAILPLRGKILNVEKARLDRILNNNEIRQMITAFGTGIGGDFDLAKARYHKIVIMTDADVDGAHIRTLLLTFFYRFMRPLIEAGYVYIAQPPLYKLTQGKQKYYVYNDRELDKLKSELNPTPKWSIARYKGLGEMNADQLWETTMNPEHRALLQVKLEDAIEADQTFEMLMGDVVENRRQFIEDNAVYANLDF
Chain of DNA gyrase (Staphylococcus aureus, UniProt P0A0K8+P20831) (P20831 whole entry): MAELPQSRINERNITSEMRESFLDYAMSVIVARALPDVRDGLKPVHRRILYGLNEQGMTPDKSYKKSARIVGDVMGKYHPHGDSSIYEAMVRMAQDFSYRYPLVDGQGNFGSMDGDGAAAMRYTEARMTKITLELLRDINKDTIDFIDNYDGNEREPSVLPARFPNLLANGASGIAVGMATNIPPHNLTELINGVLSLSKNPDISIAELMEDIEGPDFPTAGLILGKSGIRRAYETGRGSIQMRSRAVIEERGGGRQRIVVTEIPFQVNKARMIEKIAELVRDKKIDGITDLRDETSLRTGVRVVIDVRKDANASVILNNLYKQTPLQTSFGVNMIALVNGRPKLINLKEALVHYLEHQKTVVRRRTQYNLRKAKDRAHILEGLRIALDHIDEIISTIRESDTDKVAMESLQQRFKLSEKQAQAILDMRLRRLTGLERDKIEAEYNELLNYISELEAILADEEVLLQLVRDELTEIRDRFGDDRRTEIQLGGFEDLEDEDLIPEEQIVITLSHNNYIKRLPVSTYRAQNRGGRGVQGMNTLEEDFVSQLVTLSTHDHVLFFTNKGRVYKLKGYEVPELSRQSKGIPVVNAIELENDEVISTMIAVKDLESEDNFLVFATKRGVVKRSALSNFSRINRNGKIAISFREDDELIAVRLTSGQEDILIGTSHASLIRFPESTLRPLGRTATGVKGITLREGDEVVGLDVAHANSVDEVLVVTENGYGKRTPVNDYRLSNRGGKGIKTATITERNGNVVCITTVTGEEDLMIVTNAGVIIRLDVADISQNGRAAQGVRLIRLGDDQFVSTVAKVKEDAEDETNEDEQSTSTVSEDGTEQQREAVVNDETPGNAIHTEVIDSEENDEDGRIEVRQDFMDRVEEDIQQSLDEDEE
In assay [4] the test system is Staphylococcus aureus. The assay is described as follows: Antibacterial activity against […] Staphylococcus aureus ATCC 25923 assessed as reduction in bacterial growth incubated for 24 hrs by micro-broth dilution method. The class given is functional. A general note: Dilution methods test growth across graded concentrations, often in twofold steps.

The subject of assay [5] is Staphylococcus aureus. The assay is described as follows: Antibacterial activity against […] Staphylococcus aureus ATCC 6538 assessed as microbial growth inhibition incubated for 24 hrs by broth micro-dilution analysis. In kind it is functional.
Assay [6] deals with Staphylococcus aureus. Kind of assay: Antimicrobial activity against […] Staphylococcus aureus ATCC 29213 assessed as reduction in bacterial viability incubated for 18 hrs by CLSI protocol based Muller Hinton broth based dilution assay. In kind it is functional.
For a further assay, the system named is Enterococcus faecium. Kind of assay: Antimicrobial activity against Vancomycin-resistant Enterococcus faecium assessed as reduction in bacterial viability incubated for 18 hrs by CLSI protocol based Muller Hinton broth based dilution assay. The class given is functional.
Assay [7] deals with Staphylococcus aureus. The assay is described as follows: Antibacterial activity against methicillin-resistant Staphylococcus aureus assessed as reduction in microbial growth measured for 24 hrs by CLSI based broth microdilution method. The class given is functional.
Assay [8] relates to Staphylococcus aureus. Kind of assay: Antibacterial activity against Staphylococcus aureus assessed as reduction in bacterial growth by CLSI based two-fold microdilution method. The class given is functional.
Assay [9] relates to Staphylococcus aureus. The assay is described as follows: Antimicrobial activity against Methicillin-resistant Staphylococcus aureus ATCC BAA41 assessed as bacterial growth inhibition measured after 18 hrs by CLSI based Muller Hinton broth microdilution method. The class given is functional.
In assay [10] the test system is Staphylococcus aureus. The assay is described as follows: Antimicrobial activity against Methicillin-resistant Staphylococcus aureus ATCC 33591 assessed as bacterial growth inhibition measured after 18 hrs by CLSI based Muller Hinton broth microdilution method. The class given is functional.
The test system of assay [11] is Staphylococcus aureus. Kind of assay: Antimicrobial activity against Methicillin-resistant Staphylococcus aureus ATCC 43300 assessed as bacterial growth inhibition measured after 18 hrs by CLSI based Muller Hinton broth microdilution method. In kind it is functional.
For assay [12], the system named is Staphylococcus aureus. The assay is described as follows: Antibacterial activity against Methicillin-resistant Staphylococcus aureus ATCC 43300 clinical isolate assessed as reduction in microbial growth incubated for 16 to 20 hrs by CLSI based two-fold serial dilution method. In kind it is functional. The conditions noted are these: time 16-20 hrs.

In the case of `O=C(O)c1cccc(N2C(=O)/C(=C/c3c[nH]c4ccccc34)SC2=S)c1`, in the assay with Staphylococcus aureus [1], the MIC stood at 12 µg/mL (≈ 31.5 µM). In the case of `COC(=O)CC(=O)Nc1nc2c(s1)C[C@@H](NC(=O)c1[nH]c(C)c(Br)c1Cl)CC2`, the IC50 at DNA gyrase [2] was determined as 56 nM; on DNA gyrase [3] it was 3700 nM. Besides, the minimal inhibitory concentration (MIC) in the assay with Staphylococcus aureus [4] was determined as 8 µg/mL (≈ 16.3 µM). As for `CCCC(C(=O)O)N1C(=O)/C(=C/c2c[nH]c3ccccc23)SC1=S` (stereo not drawn), in the assay with Staphylococcus aureus [5], the MIC worked out at 250 µg/mL (≈ 694 µM).

As to `CCCN(CCC)CCCN1/C(=C/c2c3ccccc3[n+](C)c3c2oc2ccccc23)Sc2ccccc21.[I-]`, the MIC in the assay on Staphylococcus aureus [6] and in the assay with Enterococcus faecium was 0.25 µg/mL in each case. On to `NC(=S)N/N=C/C1=CC(c2ccc([N+](=O)[O-])cc2[N+](=O)[O-])C=C1c1ccc(Cl)cc1Cl` (stereo not drawn), for which, in the assay on Staphylococcus aureus [7], the minimal bactericidal concentration (MBC) turned out to be 38 µg/mL.

For the compound `C=C(C)[C@@H]1CC=C2c3sc(-c4cc(O)cc(O)c4)nc3C[C@@H](C)[C@]2(C)C1`, the MIC in the assay on Staphylococcus aureus [8] was found to be 3.12 µg/mL (≈ 8.49 µM). On to `CN1/C(=C/c2cc(/C=C/c3cccnc3)[n+](C)c3ccccc23)Sc2ccccc21.[I-]`, for which the MIC in the assay on Staphylococcus aureus [9], with Staphylococcus aureus [10] and in the assay on Staphylococcus aureus [11] was 1.5 µg/mL each time.

In the case of `Cc1cc(/C=C2\Sc3ccccc3N2CCCN2CCC(C)CC2)c2ccccc2[n+]1C.[I-]`, the MIC with Staphylococcus aureus [12] came to 2 µg/mL.
